US20220064167A1, “IMIDAZO-PYRAZOLE CARBOXAMIDE DERIVATIVES AS ANTICANCER AGENTS AND THE SYNTHESIS THEREOF” (AVIDIN KFT., priority 2018, published 2022)

How the values were obtained:
HL-60 cells [1] = assay: resazurin viability assay, Example 103 (FIG. 1); type: cell-based; conditions: Homo sapiens, 72 h incubation, 20.000 cells/well, read-out: half-inhibitory concentration (IC50) on viability of HL-60 cells
Procedure: The human primary fibroblasts (6000 cells/well) and Hl60 cells (20.000 cells/well) were seeded into 96-well plates (Corning Life Sciences) in media. Fibroblasts were cultured overnight before treatment. Effects of compounds described in Example 22, 60 and 83 were examined in concentrations of 1 μM, 250 nM, 62.5 nM, 15.6 nM, 3.9 nM and 0.9 nM in 100 μl after 72 h incubation. Resazurin reagent was prepared and used as described in Example 1.
Viability was calculated with relation to untreated control cells and blank wells containing media without cells. IC50 values (50% inhibiting concentration) were calculated by GraphPad Prism® 5.

HL-60 cells [2] = assay: Annexin V / propidium iodide apoptosis assay (FIG. 4); type: cell-based, human; conditions: HL-60, 40 nM, 200 nM and 1 μM, 24 h
Procedure: Cells (200,000/well) were plated in 24-well tissue culture plates (Corning Life Sciences) and treated with the compounds described in Example 60 and 83 at 40 nM, 200 nM and 1 μM concentrations in 500 μl media. After 24 h cells were harvested with the corresponding supernatant and centrifuged down (2000 rpm, 5 min). Pellets were resuspended in Annexin V binding buffer (0.01 M HEPES, 0.14 M NaCl and 2.5 mM CaCl2). Annexin V-Alexa Fluor® 488 (Life Technologies, 2.5:100) was added to the cells, which were then kept for 15 min in the dark at room temperature. Before the acquisition propidium iodide (10 μg/ml, Sigma-Aldrich) was added in Annexin V binding buffer to dilute Annexin V-Alexa Fluor® 488 5×. Cells (20.000 events) were analyzed on a FACSCalibur flow cytometer using CellQuest software (Becton Dickinson). The percentage of the FL1 (530/30 nm filter, Annexin V-Alexa Fluor® 488) positive and FL3 (670 nm filter, propidium iodide) negative early apoptotic cells and FL1 positive and FL3 positive late apoptotic cells were determined. The total apoptotic population included both early and late apoptotic cells. Column charts were created by GraphPad Prism® 5. Results are depicted in FIG. 4. […] We could detect AnnexinV^+/PI^− early and AnnexinV^+/PI^+ late apoptotic cell populations after 24 h of treatment.

Bcl-xl in HL-60 cells = assay: flow cytometry of Bcl-xl bright cells (FIG. 2A); type: cell-based, human; conditions: HL-60, 40 nM, 200 nM and 1 μM, 24 h
Procedure: Human promyelocytic leukemia HL60 Cells (500,000/well) were plated in 24-well tissue culture plates (Corning Life Sciences) in RPMI 10% FCS (Gibco) and were treated with the compounds described in Example 60 and 83 at 40 nM, 200 nM and 1 μM concentrations in 500 μl media. After 24 h incubation time cells with the corresponding supernatants were harvested and centrifuged down (2000 rpm, 5 min).
Pellets were resuspended and fixed in 3.5% PBS buffered formaldehyde (Molar Chemicals) for 10 minutes. Cells were washed with FACS-buffer (2% FCS, (Gibco) in PBS), centrifuged down (2000 rpm, 5 min). Cells were permeabilized in Permeability buffer (1% FCS, 0.1% saponin (Sigma-Aldrich) in PBS pH 7.4) for 5 minutes. Cells were washed with FACS buffer (2% FCS, (Gibco) in PBS), centrifuged (2000 rpm, 5 min). The following primary antibodies were used: Bcl-xl-Alexa 488, (Cell Signaling, cat. numb. 2767S), dilution 1:75, 24 h; pAkt-Alexa Fluor 488, (Ser473), (Cell Signaling, cat. numb, 4071), dilution 1:50, 24 or 72h; After incubation for 1h at 4° C. samples were washed two times with FACS buffer. […] In order to calculate the signal to noise ratio mean fluorescent intensity (MFI) was calculated by the following equation: =POWER(10; (Medianstained−Median unstained, untreated)/Chd), where Chd means 256, the number of channels per decade (Fajka-Boja et al. 2002; Sharrow 2001) in Microsoft Excel. […]

HT199 (human melanoma) = assay: viability assay (Table 2); type: cell-based
Procedure: (§1) For viability assays cells were seeded in 96 well plates (MCF7 and 4T1: 6000, HL60: 120.000 cells/well) and incubated overnight. Compounds were dissolved in dimethyl sulfoxide (DMSO). Cells were treated with an increasing concentration of compounds having the general formula (I.) (156 nM-100 μM). Cell viability was determined after 72h incubation. Resazurin reagent (Sigma-Aldrich) was dissolved in PBS (pH 7.4) at 0.15 mg/ml concentration, sterile filtered (0.22 μm, Merck Millipore) and aliquoted at −20° C. Resazurin reagent (Sigma-Aldrich) was added at a final concentration of 25 μg/ml. After 2 hours incubation at 37° C. 5% CO2 fluorescence (530 nm excitation/580 nm emission) was recorded on a multimode microplate reader (Cytofluor4000, PerSeptive Biosytems). Viability was calculated with relation to untreated control cells and blank wells containing media without cells. IC50 values (50% inhibiting concentration) were calculated by GraphPad Prism® 5 (La Jolla, Calif., USA).
(§2) HT168 (human melanoma), HT199 (human melanoma), HT29 (human colorectal adenocarcinoma), MOLT4 (human leukemia) and U937 (human lymphoma) cells were maintained in Roswell Park Memorial Institute 1640 medium (RPMI-1640) 10% FCS. SKOV-3 cells were maintained in Dulbecco's Modified Eagle Medium/McCoy's medium (DMEM/McCoy) 10% FCS.
(§3) Media were supplemented with 2 mM GlutaMAX, and 100 U/mL penicillin, 100 μg/mL streptomycin (Life Technologies, Carlsbad, Calif., USA). Cell cultures were maintained at 37° C. in a humidified incubator in an atmosphere of 5% CO2 (Sanyo, Japan).
(§4) Viability assays were performed as described in Example 102.

HT168 (human melanoma) = assay: viability assay (Table 2); type: cell-based
Procedure: as §1, §2, §3, §4

[3] = tested on: HT29 (human colorectal adenocarcinoma); assay: viability assay (Table 2); type: cell-based; conditions: HT-29
Procedure: as §1, §2, §3, §4

[4] = tested on: A549 (human lung adenocarcinoma); assay: viability assay (Table 2); type: cell-based
Procedure: as §1
(§5) GBM2 (human glioblastoma), HeLa (human cervical carcinoma), MIA PaCa-2 (human pancreas carcinoma) and U87MG (human glioblastoma) cells were maintained in Dulbecco's Modified Eagle Medium (DMEM) 10% fetal calf serum (FCS, Gibco). A375 (human melanoma), A549 (human lung adenocarcinoma) and HEP3B (human hepatoma) cells were maintained in Dulbecco's Modified Eagle Medium/Nutrient Mixture F-12 (DMEM/F12) 10% FCS.
as §3, §4

[5] = tested on: MIA PaCa-2 (human pancreas carcinoma); assay: viability assay (Table 2); type: cell-based
Procedure: as §1, §5, §3, §4

[6] = tested on: GBM2 (human glioblastoma); assay: viability assay (Table 2); type: cell-based
Procedure: as §1, §5, §3, §4

Structure (SMILES)	IC50 (HL-60 cells [1]) [nM]	AnnexinV+/PI- early and AnnexinV+/PI+ late apoptotic cell populations (HL-60 cells [2])	percentage of the Bcl-xl bright cells (Bcl-xl in HL-60 cells)	IC50 (HT199 (human melanoma)) [nM]	IC50 (HT168 (human melanoma)) [nM]	IC50 [3] [nM]	IC50 [4] [nM]	IC50 [5] [nM]	IC50 [6] [nM]
CC(C)(C)Nc1c(C(C)(C)C)[nH]c2c(C(=O)Nc3ccc(N)cc3)cnn12 [Example 83, N-(4-Aminophenyl)-2-(tert-butyl)-3-(tert-butylamino)-1H-imidazo[1,2-b]pyrazole-7-carboxamide]	50	accompanied by apoptosis	increase	100	100	50	300	300	100
CC(C)(C)Nc1c(C(C)(C)C)[nH]c2c(C(=O)Nc3ccc(F)cc3)cnn12 [Example 60, 2-(Tert-butyl)-N-(4-fluorophenyl)-3-((tert-butyl-2-yl)amino)-1H-imidazo[1,2-b]pyrazole-7-carboxamide]	210	accompanied by apoptosis	increase	300	500	250	750	300	250
